The molecules below were run against T1, human recombinant 15-PGDH (Homo sapiens, UniProt P15428) (assay: Recombinant 15-PGDH enzymatic inhibition assay (PGDH-Lumi, NADH signal)). Conditions: recombinant 15-PGDH; 15 min pre-incubation, 60 min reaction with PGE2 and NAD+, NADH signal.
T1 sequence (P15428 1-266): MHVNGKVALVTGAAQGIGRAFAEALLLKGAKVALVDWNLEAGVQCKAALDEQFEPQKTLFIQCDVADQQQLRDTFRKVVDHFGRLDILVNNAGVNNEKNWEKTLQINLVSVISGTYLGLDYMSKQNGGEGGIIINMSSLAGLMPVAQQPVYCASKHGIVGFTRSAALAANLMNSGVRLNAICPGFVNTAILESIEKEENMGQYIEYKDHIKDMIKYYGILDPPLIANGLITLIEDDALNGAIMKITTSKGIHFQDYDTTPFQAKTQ
Format: biochemical
Procedure: These assays measured 15-PGDH enzymatic activity by quantifying the amount of NADH produced during a 60-minute reaction initiated by the addition of PGE2 and NAD+. Under the conditions of these experiments, the increase of NADH signal upon oxidation of PGE2 and reduction of NAD+ was linearly proportional to 15-PGDH enzymatic activity. The recombinant human, mouse, rat and dog 15-PGDH enzymatic assays were performed in a 25 μL volume of reaction buffer containing 50 mM Tris, pH 7.5, 0.01% Tween-20 and […] DTT in a 384-well microtiter plate. In concentration-response experiments with tested compounds, 22 concentrations from 2-fold serial dilutions in DMSO were pre-incubated with 15-PGDH for 15 minutes at room temperature. Then, PGE2 and β-NAD+ were added to initiate the 15-PGDH reaction. After 60 minutes at room temperature, the reaction was quenched and NADH signal was measured using a microtiter plate reader.
The following data (Table 27-1) provides the IC50 in μM of each compound for inhibiting enzymatic activity of the recombinant 15-PGDH in the assay described above.
For `C[C@H](O)c1cc2c(C3CC3)cc(-c3cnc4nn(C)cc4c3)nc2s1` (single isomer, unassigned) [Compound B11S], the IC50 was 98.1 nM. Molecule `CC[C@H](O)c1cc2c(C3CC3)cc(-c3cnc4nn(C)cc4c3)nc2s1` (single isomer, unassigned) [Compound B13S] has an IC50 of 23.6 nM. For `CC(C)[C@H](O)c1cc2ccc(-c3cnc4nn(C)cc4c3)nc2s1` (single isomer, unassigned) [Compound B24S], the IC50 was 15.9 nM. Work on `Cn1cc2cc(-c3ccc4cc([C@@H](O)C5CCC(F)(F)CC5)sc4n3)cnc2n1` (single isomer, unassigned) [Compound B31S] yielded an IC50 of 5.64 nM. `Cn1ncc2cc(-c3ccc4cc([C@@H](O)C5CCOCC5)sc4n3)ccc21` (single isomer, unassigned) [Compound B34S] was tested, and the IC50 was 4700 nM. Molecule `Cn1ncc2cc(-c3ccc4cc([C@@H](O)C5CCOCC5)sc4n3)cnc21` (single isomer, unassigned) [Compound B35S] has an IC50 of 149 nM. `O[C@H](c1cc2ccc(-c3ccc4[nH]ncc4c3)nc2s1)C1CCOCC1` (single isomer, unassigned) [Compound B37S] gave an IC50 of 1880 nM. Work on `Cc1cc2[nH]ncc2cc1-c1ccc2cc([C@H](O)C3CCOCC3)sc2n1` (single isomer, unassigned) [Compound B38R] yielded an IC50 of 93 nM. Work on `Cc1cc2[nH]ncc2cc1-c1ccc2cc([C@@H](O)C3CCOCC3)sc2n1` (single isomer, unassigned) [Compound B38S] yielded an IC50 of 1010 nM. `Cn1nc2cc(-c3ccc4cc([C@@H](O)C5CCOCC5)sc4n3)cnc2n1` (single isomer, unassigned) [Compound B39S] showed an IC50 of 184 nM. `Cc1n[nH]c2ccc(-c3ccc4cc([C@H](O)C5CCOCC5)sc4n3)cc12` (single isomer, unassigned) [Compound B40R] was tested, and the IC50 was 7.16 nM. `Cc1n[nH]c2ccc(-c3ccc4cc([C@@H](O)C5CCOCC5)sc4n3)cc12` (single isomer, unassigned) [Compound B40S] showed an IC50 of 3400 nM. `Cn1nnc2cc(-c3ccc4cc([C@@H](O)C5CCOCC5)sc4n3)cnc21` (single isomer, unassigned) [Compound B41S] showed an IC50 of 151 nM. `O[C@H](c1cc2ccc(-c3ccc4oncc4c3)nc2s1)C1CCOCC1` (single isomer, unassigned) [Compound B43S] was tested, and the IC50 was 626 nM. For `O[C@H](c1cc2ccc(-c3cnc4[nH]nnc4c3)nc2s1)C1CCOCC1` (single isomer, unassigned) [Compound B44S], the IC50 was 133 nM. `Cc1cn2cc(-c3ccc4cc([C@@H](O)C5CC(F)(F)C5)sc4n3)ccc2n1` (single isomer, unassigned) [Compound B48S] gave an IC50 of 11.8 nM. For `Cn1cnc(-c2ccc3cc([C@@H](O)C4CC(F)(F)C4)sc3n2)cc1=O` (single isomer, unassigned) [Compound B49S], the IC50 was 9.3 nM. With `Cc1nc2ccc(-c3ccc4cc([C@@H](O)C5CC(F)(F)C5)sc4n3)cc2o1` (single isomer, unassigned) [Compound B51S] the IC50 was 6.58 nM. With `CCC[C@H](O)c1cc2ccc(-c3cnc4nn(C)cc4c3)cc2s1` (single isomer, unassigned) [Compound B54S] the IC50 was 757 nM. Work on `CC(C)n1cc2cc(-c3ccc4cc([C@@H](O)C5CC(F)(F)C5)sc4n3)ccc2n1` (single isomer, unassigned) [Compound B56S] yielded an IC50 of 18.3 nM. `O[C@H](c1cc2ccc(-c3cncnc3)nc2s1)C1CC(F)(F)C1` (single isomer, unassigned) [Compound B57S] showed an IC50 of 13.2 nM. For `Cn1cc2cc(-c3ccc4cc([C@@H](O)C5CCCC5)sc4c3)cnc2n1` (single isomer, unassigned) [Compound B58S], the IC50 was 111 nM. In the case of `COCC[C@H](O)c1cc2ccc(-c3cnc4nn(C)cc4c3)cc2s1` (single isomer, unassigned) [Compound B59S], the IC50 is reported as 1100 nM. `Cn1cc2cc(-c3ccc4cc([C@@H](O)CCC(F)(F)F)sc4c3)cnc2n1` (single isomer, unassigned) [Compound B60S] gave an IC50 of 308 nM. Molecule `CC(C)n1ncc2cc(-c3ccc4cc([C@@H](O)C5CC(F)(F)C5)sc4n3)cnc21` (single isomer, unassigned) [Compound B65S] has an IC50 of 23.1 nM. Molecule `[2H][C@@](O)(c1cc2ccc(-c3cnc4nn(C)cc4c3)nc2s1)C1CCOCC1` (single isomer, unassigned) [Compound B66S] has an IC50 of 155 nM. In the case of `Cn1cc2cc(-c3ccc4cc([C@@H](CO)C5CC(F)(F)C5)sc4n3)cnc2n1` (single isomer, unassigned) [Compound B80R], the IC50 is reported as 46.7 nM. `C[C@@H]1CC[C@@]1(O)c1cc2ccc(-c3cnc4nn(C)cc4c3)nc2s1` (single isomer, unassigned) [Compound C64SR] showed an IC50 of 466 nM. For `Cn1cc2cc(-c3ccc4cc([C@]5(O)CCC5(C)C)sc4n3)cnc2n1` (single isomer, unassigned) [Compound C65S], the IC50 was 1990 nM. For `Cn1cc2cc(-c3ccc4cc(CO)sc4n3)cnc2n1` [Compound A1, (6-(2-methyl-2H-pyrazolo[3,4-b]pyridin-5-yl)thieno[2,3-b]pyridin-2-yl)methanol], the IC50 was 159 nM. Molecule `CN(C)c1c(CO)c(-c2cnc3nn(C)cc3c2)nc2sc(CO)cc12` [Compound A2, (4-(dimethylamino)-6-(2-methyl-2H-pyrazolo[3,4-b]pyridin-5-yl)thieno[2,3-b]pyridine-2,5-diyl)dimethanol] has an IC50 of 2160 nM. `COCc1cc2c(C3CCC3)cc(-c3cnc4nn(C)cc4c3)nc2s1` [Compound A3, 5-(4-cyclobutyl-2-(methoxymethyl)thieno[2,3-b]pyridin-6-yl)-2-methyl-2H-pyrazolo[3,4-b]pyridine] was tested, and the IC50 was 671 nM. For `COCc1cc2c(C3(COC)CCC3)cc(-c3cnc4nn(C)cc4c3)nc2s1` [Compound A4, 5-(2-(methoxymethyl)-4-(1-(methoxymethyl)cyclobutyl)thieno[2,3-b]pyridin-6-yl)-2-methyl-2H-pyrazolo[3,4-b]pyridine], the IC50 was > 100000 nM. Molecule `Cn1nccc1-c1cc(-c2ccnn2C)c2cc(C(O)C3CCC3)sc2n1` (stereo not shown) [Compound B1, (4,6-bis(1-methyl-1H-pyrazol-5-yl)thieno[2,3-b]pyridin-2-yl)(cyclobutyl)methanol] has an IC50 of 58.6 nM. For `Cn1cc2cc(-c3cc(-c4ccnn4C)nc4sc(C(O)C5CCC5)cc34)cnc2n1` (stereo not shown) [Compound B3, cyclobutyl(4-(2-methyl-2H-pyrazolo[3,4-b]pyridin-5-yl)-6-(1-methyl-1H-pyrazol-5-yl)thieno[2,3-b]pyridin-2-yl)methanol], the IC50 was 64.3 nM. Work on `COC(c1cc2c(-c3ccnn3C)cc(-c3cnc4nn(C)cc4c3)nc2s1)C1CCC1` (stereo not shown) [Compound B4] yielded an IC50 of 39.7 nM. In the case of `CC(O)c1cc2c(-c3cnc4nn(C)cc4c3)cc(-c3ccnn3C)nc2s1` (stereo not shown) [Compound B5, 1-(4-(2-methyl-2H-pyrazolo[3,4-b]pyridin-5-yl)-6-(1-methyl-1H-pyrazol-5-yl)thieno[2,3-b]pyridin-2-yl)ethanol], the IC50 is reported as 78.4 nM. In the case of `Cn1cc2cc(-c3cc(C4CC4)nc4sc(C(O)C5CCC5)cc34)cnc2n1` (stereo not shown) [Compound B7, cyclobutyl(6-cyclopropyl-4-(2-methyl-2H-pyrazolo[3,4-b]pyridin-5-yl)thieno[2,3-b]pyridin-2-yl)methanol], the IC50 is reported as 14.9 nM. In the case of `CC(O)c1cc2c(-c3ccnn3C)cc(-c3ccnn3C)nc2s1` (stereo not shown) [Compound B9, 1-(4,6-bis(1-methyl-1H-pyrazol-5-yl)thieno[2,3-b]pyridin-2-yl)ethanol], the IC50 is reported as 17700 nM. Molecule `CC(O)c1cc2c(-c3cnc4nn(C)cc4c3)cc(-c3cnc4nn(C)cc4c3)nc2s1` (stereo not shown) [Compound B10, 1-(4,6-bis(2-methyl-2H-pyrazolo[3,4-b]pyridin-5-yl)thieno[2,3-b]pyridin-2-yl)ethanol] has an IC50 of 139 nM. In the case of `CC(O)c1cc2c(-c3cnc4nn(C)cc4c3)cc(C3CC3)nc2s1` (stereo not shown) [Compound B12, 1-(6-cyclopropyl-4-(2-methyl-2H-pyrazolo[3,4-b]pyridin-5-yl)thieno[2,3-b]pyridin-2-yl)ethanol], the IC50 is reported as 57.8 nM. For `CN1CCC(C(O)c2cc3ccc(-c4cnc5nn(C)cc5c4)nc3s2)CC1` (stereo not shown) [Compound B33, (1-methyl-4-piperidinyl)(6-(2-methyl-2H-pyrazolo[3,4-b]pyridin-5-yl)thieno[2,3-b]pyridin-2-yl)methanol], the IC50 was 27 nM. Work on `Cn1ncc2cc(-c3ccc4cc(C(O)C5CCOCC5)sc4n3)ccc21` (stereo not shown) [Compound B34, (6-(1-methyl-1H-indazol-5-yl)thieno[2,3-b]pyridin-2-yl)(tetrahydro-2H-pyran-4-yl)methanol] yielded an IC50 of 20.7 nM. Work on `CN1CC(C(O)c2cc3ccc(-c4cnc5nn(C)cc5c4)nc3s2)C1` (stereo not shown) [Compound B42, (1-methyl-3-azetidinyl)(6-(2-methyl-2H-pyrazolo[3,4-b]pyridin-5-yl)thieno[2,3-b]pyridin-2-yl)methanol] yielded an IC50 of 12.8 nM. With `CN1CCC1C(O)c1cc2ccc(-c3cnc4nn(C)cc4c3)nc2s1` (stereo not shown) [Compound B45] the IC50 was 8.64 nM. In the case of `CCCC(O)c1cc2ccc(-c3cnc4nn(C)cc4c3)cc2s1` (stereo not shown) [Compound B54, 1-(6-(2-methyl-2H-pyrazolo[3,4-b]pyridin-5-yl)-1-benzothiophen-2-yl)-1-butanol], the IC50 is reported as 9.35 nM.
